# Data as given in US10287266B2, “Compounds and compositions for inhibiting the activity of SHP2” (NOVARTIS AG, priority 2015, dated 2019).
# Target: T1, SHP2 (Homo sapiens, UniProt Q06124)
# T1 sequence (Q06124 1-593): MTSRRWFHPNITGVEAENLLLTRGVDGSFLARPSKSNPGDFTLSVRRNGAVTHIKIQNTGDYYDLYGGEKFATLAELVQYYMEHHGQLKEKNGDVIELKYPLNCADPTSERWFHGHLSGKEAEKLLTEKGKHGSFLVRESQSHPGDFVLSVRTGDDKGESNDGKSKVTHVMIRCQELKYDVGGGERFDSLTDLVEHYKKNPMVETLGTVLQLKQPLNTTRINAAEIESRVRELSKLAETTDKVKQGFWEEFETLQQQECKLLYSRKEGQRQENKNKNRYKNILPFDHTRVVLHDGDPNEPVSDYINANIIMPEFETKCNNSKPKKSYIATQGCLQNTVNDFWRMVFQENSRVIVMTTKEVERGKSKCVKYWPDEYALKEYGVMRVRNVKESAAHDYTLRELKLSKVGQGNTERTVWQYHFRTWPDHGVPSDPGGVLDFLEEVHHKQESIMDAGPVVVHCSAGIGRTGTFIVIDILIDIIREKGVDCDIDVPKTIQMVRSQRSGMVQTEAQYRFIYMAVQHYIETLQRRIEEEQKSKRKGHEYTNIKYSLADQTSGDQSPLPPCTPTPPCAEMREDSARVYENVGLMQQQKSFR
# Test: SHP2 Allosteric Inhibition Assay
# Format: biochemical
# Details: 0.5 nM SHP2 activated with 0.5 μM peptide IRS1_pY1172(dPEG8)pY1222; surrogate substrate DiFMUP, prompt fluorescence, 25° C.
# Source text: SHP2 Allosteric Inhibition Assay
# SHP2 is allosterically activated through binding of bis-tyrosyl-phorphorylated peptides to its Src Homology 2 (SH2) domains. The latter activation step leads to the release of the auto-inhibitory interface of SHP2, which in turn renders the SHP2 protein tyrosine phosphatase (PTP) active and available for substrate recognition and reaction catalysis. The catalytic activity of SHP2 was monitored using the surrogate substrate DiFMUP in a prompt fluorescence assay format.
# After 30-60 minutes incubation at 25° C., the surrogate substrate DiFMUP (Invitrogen, cat# D6567) was added to the reaction and incubated at 25° C. for 30 minutes. […] The inhibitor dose response curves were analyzed using normalized IC50 regression curve fitting with control based normalization.
row,SMILES,AC50 [µM]
1,N[C@@H]1CCCC12CCN(c1cnc(Sc3ccccc3Cl)cn1)CC2 [Example 73],0.0173
2,COc1cccc(Sc2cnc(N3CCC4(CCC[C@H]4N)CC3)cn2)c1 [Example 74],0.0376
3,N[C@@H]1CCCC12CCN(c1cnc(Sc3cccc(F)c3F)cn1)CC2 [Example 75],0.0977
4,N[C@@H]1CCCC12CCN(c1cnc(Sc3cccc(Cl)c3)cn1)CC2 [Example 77],0.279
5,N[C@@H]1CCCC12CCN(c1cnc(Sc3cccc(O)c3)cn1)CC2 [Example 78],0.0318
6,Nc1cccc(Sc2cnc(N3CCC4(CCC[C@H]4N)CC3)cn2)c1 [Example 79],0.0314
7,N#Cc1cccc(Sc2cnc(N3CCC4(CCC[C@H]4N)CC3)cn2)c1 [Example 80],0.21
8,N[C@@H]1CCCC12CCN(c1cnc(Sc3cccc(CO)c3)cn1)CC2 [Example 81],0.0548
9,N[C@@H]1CCCC12CCN(c1cnc(Sc3cccc(Br)c3)cn1)CC2 [Example 82],0.0811
10,CCOc1cccc(Sc2cnc(N3CCC4(CCC[C@H]4N)CC3)cn2)c1 [Example 83],0.0781
11,N[C@@H]1CCCC12CCN(c1cnc(Sc3cccc(C4CC4)c3)cn1)CC2 [Example 84],0.0339
12,N[C@@H]1CCCC12CCN(c1cnc(Sc3cccc(C(F)(F)F)c3)cn1)CC2 [Example 85],0.0528
13,N[C@@H]1CCCC12CCN(c1cnc(Sc3ccc(C(F)(F)F)cc3)cn1)CC2 [Example 87],0.235
14,N[C@@H]1CCCC12CCN(c1cnc(Sc3ccc(OC(F)(F)F)cc3)cn1)CC2 [Example 88],0.0823

# The next lines start with the values.
row,AC50 [µM],SMILES
1,0.107,N[C@@H]1CCCC12CCN(c1cnc(Sc3ccncc3)cn1)CC2 [Example 89]
2,0.666,N[C@@H]1CCCC12CCN(c1cnc(Sc3ccc(Br)c(Cl)c3)cn1)CC2 [Example 91]
3,0.00577,N[C@@H]1CCCC12CCN(c1cnc(Sc3cccc(F)c3Cl)cn1)CC2 [Example 92]
4,0.0893,N[C@@H]1CCCC12CCN(c1cnc(Sc3cccc(Cl)c3F)cn1)CC2 [Example 93]
5,0.039,N[C@@H]1CCCC12CCN(c1cnc(Sc3cccc(CN4CCOCC4)c3)cn1)CC2 [Example 94]
6,0.159,N[C@@H]1CCCC12CCN(c1cnc(Sc3ccncc3F)cn1)CC2 [Example 95]
7,0.0777,N[C@@H]1CCCC12CCN(c1cnc(Sc3cccc(NC(=O)C4CC4)c3)cn1)CC2 [Example 96]
8,0.0293,N[C@@H]1CCCC12CCN(c1cnc(Sc3ccnc4c3CCC4)cn1)CC2 [Example 97]
9,0.293,Cc1c(Sc2cnc(N3CCC4(CCC[C@H]4N)CC3)cn2)cccc1C(F)(F)F [Example 98]
10,0.0439,N[C@@H]1CCCC12CCN(c1cnc(Sc3ccnc(F)c3Cl)cn1)CC2 [Example 99]
11,0.151,N[C@@H]1CCCC12CCN(c1cnc(Sc3ccc(F)cc3F)cn1)CC2 [Example 100]
12,2.51,N[C@@H]1CCCC12CCN(c1cnc(Sc3c(F)c(F)cc(F)c3F)cn1)CC2 [Example 101]
13,0.436,N[C@@H]1CCCC12CCN(c1cnc(Sc3cccc(S(F)(F)(F)(F)F)c3)cn1)CC2 [Example 102]
14,0.0789,N[C@@H]1CCCC12CCN(c1cnc(Sc3cc[nH]c(=O)c3Cl)cn1)CC2 [Example 105]
15,11.3,N[C@@H]1CCCC12CCN(c1cnc(Sc3cccnc3)cn1)CC2 [Example 106]
16,0.074,N[C@@H]1CCCC12CCN(c1cnc(Sc3cccc(Cl)c3Cl)cn1)CC2 [Example 107]
17,0.052,C[C@@H]1OCC2(CCN(c3cnc(Sc4ccccc4)cn3)CC2)[C@@H]1N [Example 108]
18,0.0288,C[C@@H]1OCC2(CCN(c3cnc(Sc4cc[nH]c(=O)c4Cl)cn3)CC2)[C@@H]1N [Example 109]
19,0.0441,C[C@@H]1OCC2(CCN(c3cnc(Sc4ccnc(F)c4Cl)cn3)CC2)[C@@H]1N [Example 111]
20,0.0348,C[C@@H]1OCC2(CCN(c3cnc(Sc4ccncc4F)cn3)CC2)[C@@H]1N [Example 113]
21,0.12,C[C@@H]1OCC2(CCN(c3cnc(Sc4ccnc(F)c4)cn3)CC2)[C@@H]1N [Example 114]
